# Laboratory results as given in patent publication EP0123446A1, “2-Furylbutyrolactone derivatives, their preparation, compositions containing them, and their use for the modulation of the immune system in mammals” (NATIONAL FOUNDATION FOR CANCER RESEARCH, INC., priority 1983, dated 1984).
# Tests used:
# spleen lymphocytes [1] = test: In vitro lymphocyte stimulation assay, C57BL/6 spleen lymphocytes; assay type: cell-based, mice; conditions: for effect on response of the lymphocytes to PHA and Con-A: C57BL/6 spleen cells in vitro, Example 19
# Procedure: (§1) The purpose of this assay is to challange lymphocytes in microcultures with one or more polyclonal mitogens at concentrations that will induce mitogenesis within 72 hours of stimulation.
# (§2) In the mouse model, spleens were removed from different strains of mice and the spleen cells were teased free and suspended in RPMI-1640 tissue culture medium at a concentration of usually 1 x 10^7 ml. These cells were dispensed at a concentration of […] cells per microculture well in a 96 well flat bottom tissue culture plate. All testing of the compounds of this invention or mitogens were done in replicates of 10. The cells were then treated with PHA. Con-A, specific antigens, or buffer only. Where in vitro testing was done, varying concentrations of the compounds of this invention or buffer only were added to the cells as well. After treatment with the mitogens and/or compounds of this invention, the cells were incubated for 72 hours. The response of these cells to mitogens and/or the compounds of this invention was assessed using 14 C-thymidine labeling on the fourth day at a concentration of 0.01 microCi/well. The labeled cells were harvested using a lymphocyte harvestor and placed onto fibrous paper discs. A scintillation cocktail was added to vials containing the discs and the results were obtained using a LKB-liquid scintillation counter (Model 1216/Rackbeta II). The data is expressed as a ratio of the cpm (counts per minute) of the mitogen stimulated group to the control (non-mitogen) treated group = lymphocyte stimulation index (LSI).
# (§3) The lymphocyte stimulation assay may be performed directly on spleen cells obtained from various strains of mice not treated with the compounds of this invention or on lymphocytes obtained from human plasma. In such experiments, the compounds of this invention were added directly to the spleen lymphcytes in vitro and the assay was completed and results interpreted. Alternatively. the mice may be treated in vivo with the compounds of this invention by intraperitoneal multi-dose schedules, followed by sacrifice and harvesting spleen lymphocytes. These cells were then tested for their response to polyclonal mitogens or specific antigens used to immunize the mice. In this system however, no additional compound was added to the in vitro lymphocyte stimulation assay system.
# L-1210 leukaemia cells = test: L-1210 leukaemia anti-cancer study (NCI protocol), BDF1 mice; assay type: in vivo; conditions: 20 mg/kg, seven days, Table 25
# Excerpt: Mice of the BDF1 strain were given an i.p. inoculation of 10^6 L-1210 leukaemia cells on day 0. Twenty-four hours later, groups of 7 mice each were started on a […] treatment regimen of various doses of the compounds of this invention. The experiment was continued according to the guidelines provided under the National Cancer Institute protocol for screening new anti-cancer agents; T/C ratios (median or mean survival time of treated groups over median or mean survival time of controls) were calculated. A T/C value > 1.25 (or 125%) is considered to indicate significant anticancer activity.
# Mice of the BDF1 strain, inoculated with L-1210 leukaemia cells, were treated for seven days with either 25, 50, 100, 200 or 400 mg/kg of Cpd. 1 or just buffer. The National Cancer Institute protocol for screening new anti-cancer agents was followed and T/C ratios were calculated.
# Mice of the BDFI strain, inoculated with L-1210 leukaemia cells, were treated for seven days with either 100 mg/kg of Cpd. 1, 20 mg/kg of 5-fluorouracil (5-FU), a known anti-cancer agent, or just buffer. The National Cancer Institute protocol for screening new anti-cancer agents was followed and T/C ratios are calculated.
# spleen lymphocytes [2] = test: Lymphocyte stimulation assay after in vivo treatment, C57BL/6 mice; conditions: for Lymphocyte Stimulation Index Con-A / Lymphocyte Stimulation Index Control / Lymphocyte Stimulation Index PHA: C57BL/6, Table 3-A
# Procedure: as §1, §2, §3
# human lymphocytes = test: In vitro lymphocyte stimulation assay, human lymphocytes; assay type: cell-based; design: key to Lymphocyte Stimulation Index PHA / Lymphocyte Stimulation Index Con-A: ratio of cpm of mitogen-stimulated to non-mitogen control group (LSI); conditions: for Lymphocyte Stimulation Index Con-A / Lymphocyte Stimulation Index PHA: human, Table 6-A
# Procedure: as §1, §2, §3
# Lymphocytes isolated from 5 human volunteers were treated in vitro with PHA and Con-A and either 10^2, 10^3, 10^4, 5 x 10^4 or 10^5 ng/well of Cpd. 1, 10^2, 10^3, 10^4, 5 x 10^4, or 10^5 ng/well of AA, or buffer.
# [3] = 1.392x10^4 ng/well, C57BL/6, Table 12-B
# [4] = 1.74x10^3 ng/well, C57BL/6, Table 12-B
# [5] = 3.48x10^3 ng/well, C57BL/6, Table 12-B
# [6] = 6.96x10^3 ng/well, C57BL/6, Table 12-B
# [7] = 8.7x10^2 ng/well, C57BL/6, Table 12-B
# [8] = 1.04x10^3 ng/well in vitro, C57BL/6, Table 12-A
# [9] = 1.66x10^4 ng/well in vitro, C57BL/6, Table 12-A
# [10] = 2.08x10^3 ng/well in vitro, C57BL/6, Table 12-A
# [11] = 4.15x10^3 ng/well in vitro, C57BL/6, Table 12-A
# [12] = 8.3x10^3 ng/well in vitro, C57BL/6, Table 12-A
structure (smiles),measurement,setting,value
"O=C1CCC(=O)N1 [Succinimide, succinimide]",Lymphocyte Stimulation Index Con-A,spleen lymphocytes [1]; [3],92.9
same,Lymphocyte Stimulation Index Control,spleen lymphocytes [1]; [3],1.4
same,Lymphocyte Stimulation Index PHA,spleen lymphocytes [1]; [3],17.1
same,Lymphocyte Stimulation Index Con-A,spleen lymphocytes [1]; [4],83.4
same,Lymphocyte Stimulation Index Control,spleen lymphocytes [1]; [4],1.1
same,Lymphocyte Stimulation Index PHA,spleen lymphocytes [1]; [4],17.5
same,Lymphocyte Stimulation Index Con-A,spleen lymphocytes [1]; [5],85.1
same,Lymphocyte Stimulation Index Control,spleen lymphocytes [1]; [5],0.98
same,Lymphocyte Stimulation Index PHA,spleen lymphocytes [1]; [5],18.1
same,Lymphocyte Stimulation Index Con-A,spleen lymphocytes [1]; [6],71.9
same,Lymphocyte Stimulation Index Control,spleen lymphocytes [1]; [6],1.1
same,Lymphocyte Stimulation Index PHA,spleen lymphocytes [1]; [6],17.2
same,Lymphocyte Stimulation Index Con-A,spleen lymphocytes [1]; [7],76.0
same,Lymphocyte Stimulation Index Control,spleen lymphocytes [1]; [7],0.91
same,Lymphocyte Stimulation Index PHA,spleen lymphocytes [1]; [7],19.5
same,effect on response of the lymphocytes to PHA and Con-A,spleen lymphocytes [1],no significant suppressive or enhancing effect
"O=c1[nH]cc(F)c(=O)[nH]1 [5-FU, 5-fluorouracil]",Median Survival Time,L-1210 leukaemia cells,30
same,T/C,L-1210 leukaemia cells,1.50
"O=C1O[C@H]([C@@H](O)CO)C(O)=C1O [AA, ascorbic acid]","effect on lymphocyte response, Con-A stimulated group","spleen lymphocytes [2]; 50 mg/kg i.p. 4 days, C57BL/6",single stimulation of proliferation
same,Lymphocyte Stimulation Index Con-A,spleen lymphocytes [2]; 50 mg/kg i.p. 4 days,25.5
same,Lymphocyte Stimulation Index Control,spleen lymphocytes [2]; 50 mg/kg i.p. 4 days,0.56
same,Lymphocyte Stimulation Index PHA,spleen lymphocytes [2]; 50 mg/kg i.p. 4 days,17.1
same,Lymphocyte Stimulation Index Con-A,spleen lymphocytes [2]; 100 mg/kg i.p. 4 days,19.8
same,Lymphocyte Stimulation Index Control,spleen lymphocytes [2]; 100 mg/kg i.p. 4 days,1.8
same,Lymphocyte Stimulation Index PHA,spleen lymphocytes [2]; 100 mg/kg i.p. 4 days,17.1
same,Lymphocyte Stimulation Index Con-A,spleen lymphocytes [2]; 200 mg/kg i.p. 4 days,21.1
same,Lymphocyte Stimulation Index Control,spleen lymphocytes [2]; 200 mg/kg i.p. 4 days,1.3
same,Lymphocyte Stimulation Index PHA,spleen lymphocytes [2]; 200 mg/kg i.p. 4 days,10.0
same,Lymphocyte Stimulation Index Con-A,spleen lymphocytes [2]; 400 mg/kg i.p. 4 days,17.8
same,Lymphocyte Stimulation Index Control,spleen lymphocytes [2]; 400 mg/kg i.p. 4 days,1.3
same,Lymphocyte Stimulation Index PHA,spleen lymphocytes [2]; 400 mg/kg i.p. 4 days,14.3
same,Lymphocyte Stimulation Index Con-A,spleen lymphocytes [2]; 800 mg/kg i.p. 4 days,23.9
same,Lymphocyte Stimulation Index Control,spleen lymphocytes [2]; 800 mg/kg i.p. 4 days,0.50
same,Lymphocyte Stimulation Index PHA,spleen lymphocytes [2]; 800 mg/kg i.p. 4 days,12.1
same,effect on lymphocyte response with PHA,"spleen lymphocytes [2]; 50-800 mg/kg i.p. 4 days, C57BL/6",No statistically significant measureable effect
same,Lymphocyte Stimulation Index Con-A,human lymphocytes; 5x10^4 ng/well in vitro,23.31
same,Lymphocyte Stimulation Index PHA,human lymphocytes; 5x10^4 ng/well in vitro,35.93
same,Lymphocyte Stimulation Index Con-A,human lymphocytes; 10^2 ng/well in vitro,24.37
same,Lymphocyte Stimulation Index PHA,human lymphocytes; 10^2 ng/well in vitro,38.29
same,Lymphocyte Stimulation Index Con-A,human lymphocytes; 10^3 ng/well in vitro,24.76
same,Lymphocyte Stimulation Index PHA,human lymphocytes; 10^3 ng/well in vitro,34.69
same,Lymphocyte Stimulation Index Con-A,human lymphocytes; 10^4 ng/well in vitro,27.35
same,Lymphocyte Stimulation Index PHA,human lymphocytes; 10^4 ng/well in vitro,35.10
same,Lymphocyte Stimulation Index Con-A,human lymphocytes; 10^5 ng/well in vitro,25.18
same,Lymphocyte Stimulation Index PHA,human lymphocytes; 10^5 ng/well in vitro,34.23
same,"proliferative or anti-proliferative effect, PHA and Con-A","human lymphocytes; 10^2 to 10^5 ng/well, human lymphocytes in vitro",no significant proliferative or anti-proliferative effect
"O=C(O)CCC(=O)O [Succinic Acid, succinic acid]",Lymphocyte Stimulation Index Con-A,spleen lymphocytes [1]; [8],64.6
same,Lymphocyte Stimulation Index Control,spleen lymphocytes [1]; [8],0.94
same,Lymphocyte Stimulation Index PHA,spleen lymphocytes [1]; [8],15.7
same,Lymphocyte Stimulation Index Con-A,spleen lymphocytes [1]; [9],38.5
same,Lymphocyte Stimulation Index Control,spleen lymphocytes [1]; [9],1.1
same,Lymphocyte Stimulation Index PHA,spleen lymphocytes [1]; [9],11.5
same,Lymphocyte Stimulation Index Con-A,spleen lymphocytes [1]; [10],51.1
same,Lymphocyte Stimulation Index Control,spleen lymphocytes [1]; [10],1.0
same,Lymphocyte Stimulation Index PHA,spleen lymphocytes [1]; [10],15.3
same,Lymphocyte Stimulation Index Con-A,spleen lymphocytes [1]; [11],42.3
same,Lymphocyte Stimulation Index Control,spleen lymphocytes [1]; [11],0.91
same,Lymphocyte Stimulation Index PHA,spleen lymphocytes [1]; [11],14.0
same,Lymphocyte Stimulation Index Con-A,spleen lymphocytes [1]; [12],35.6
same,Lymphocyte Stimulation Index Control,spleen lymphocytes [1]; [12],0.91
same,Lymphocyte Stimulation Index PHA,spleen lymphocytes [1]; [12],12.4
same,effect on response of the lymphocytes to PHA and Con-A,spleen lymphocytes [1],decrease in PHA and Con-A mitogenesis with increased succinic acid dosage
